Results published in patent publication US6979673B1, “Method and compositions for modulating somatolactogenic functions” (Trustees of the University of Pennsylvania, priority 1999, dated 2005).

What was measured:
[1] = test system: Nb2 cells; assay: PRL-driven proliferation of Nb2 cells (3H-thymidine); type: cell-based, rat; conditions: for enhancement of PRL-driven growth vs cultures that received only PRL: Nb2 cells, biphasic, most prominent at 5–10 mM CypB and 50 pM PRL
Description: (§1) The effect of exogenous CypB on PRL-driven proliferation was examined with the rat Nb2 T-cell and the human T47D breast cancer line. […] This dose-dependent biphasic effect was most prominent at physiologic concentrations ([…]) of CypB and PRL (50 pM) found in human serum. […] To determine the effect of CypB on cellular growth driven by the larger family of cytokines, to which PRL belongs, proliferation driven by interleukin-2 (IL-2), IL-3 and GH was examined.
(§2) Nb2-cells (5×10^4; PRL-dependent, rat T-lymphoma) were plated in each well of 96 well plates in a defined DMEM-serum free medium (0.1 mM 2-mercaptoethanol, 1% penicillin/streptomycin, and 1% ITS+ (Calbiochem)). Cells were rested for 24 hours at 37° C. in this defined medium in the absence of PRL before the addition of 5–500 pM PRL (either as human pituitary isolated PRL, National Hormone and Pituitary Program, NIDDK; recombinant human PRL from E. coli, Genzyme; or recombinant human PRL from Drosophila S2 cells) alone or premixed with 1–2000 fold excess of purified CypB. Parallel studies were performed using human pituitary-derived GH (National Hormone and Pituitary Program, NIDDK). Cultures were incubated for 48 hours at 37° C. and proliferation was evaluated by the addition of 0.5 μCi of ^3H-thymidine for four hours followed by harvesting and scintillography. When stimulated with PRL alone, Nb2 cells yield sigmoid shaped growth curves that plateau at approximately 2 ng PRL/ml.

[2] = target: T1, PRL (Homo sapiens, UniProt P01236); assay: Co-immunoprecipitation of admixed purified epitope-tagged proteins; type: binding; set-up: Full length PRL cDNA was generated by PCR; made in house; host or cells: Drosophila S2 cells (pAc5/V5-HisA); conditions: reducing agent or divalent cation facilitated the interaction
T1 sequence (P01236 29-227): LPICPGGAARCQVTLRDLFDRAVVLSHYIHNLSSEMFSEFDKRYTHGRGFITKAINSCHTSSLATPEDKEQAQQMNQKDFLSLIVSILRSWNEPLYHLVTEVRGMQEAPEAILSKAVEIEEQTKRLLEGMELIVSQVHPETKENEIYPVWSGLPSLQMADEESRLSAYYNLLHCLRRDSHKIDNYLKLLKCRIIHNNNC

[3] = test system: Nb2 cells; assay: GH-driven proliferation; type: cell-based, rat; conditions: physiological concentrations of CypB
Description: as §1
as §2, with “When stimulated with PRL alone, Nb2 cells yield sigmoid shaped growth curves that plateau at approximately 2 ng PRL/ml.” left out

[4] = test system: IL-2-driven proliferation; assay: IL-2-driven proliferation; type: cell-based; conditions: varying concentration of CypB
Description: as §1

[5] = test system: IL-3-driven proliferation; assay: IL-3-driven proliferation; type: cell-based; conditions: varying concentration of CypB
Description: as §1

[6] = test system: T47D human breast cancer cells; assay: Nuclear retrotranslocation of PRL, anti-PRL indirect immunofluorescence; type: cell-based; conditions: added to defined T47D culture medium; CypB added to EGF-containing medium
Description: Experiments were performed to examine the ability of CypB to enhance nuclear retrotranslocation of PRL, and thereby PRL-driven proliferation.
The role of this sequence in the CypB-mediated retrotranslocation of PRL, and its associated enhancement of growth was tested by mutagenic approaches. The putative nuclear localization sequence of CypB was deleted in the mutant CypB-NT.

[7] = target: T1, PRL; assay: Co-immunoprecipitation of PRL with CypB from human serum; type: binding

| Substance | enhancement of PRL-driven growth vs cultures that received only PRL [1] | direct interaction with PRL (co-immunoprecipitation) [2] | enhancement of PRL-induced proliferation ([1]; cell line not given) | enhancement of GH-driven proliferation vs GH alone [3] | effect on IL-2-driven proliferation [4] | effect on IL-3-driven proliferation [5] | T47D nuclei exhibiting anti-PRL immunofluorescence [6] | co-immunoprecipitation of PRL from human serum [7] |
| --- | --- | --- | --- | --- | --- | --- | --- | --- |
| CypA: recombinant form of the highly homologous cyclophilin family member CypA [reference compound] | did not result in any potentiation | failed to interact | – | – | – | – | – | – |
| CypB: cyclophilin B, peptidyl prolyl isomerase, GenBank NM 000942, SEQ ID NO: 1; recombinant His-tagged | eight-fold | interact directly | failed to enhance | forty-fold | Neither IL-2- nor IL-3-driven proliferation was altered | Neither IL-2- nor IL-3-driven proliferation was altered | 95–100% | direct co-immunoprecipitation of PRL with CypB from human serum |
